Reference: the OligoGym collection
Where “and” joins values, the source holds several entries; their conditions need not be identical. Equal entries are not always repeated. After the bases stand the sugars from the 5' end (letter, count) and the backbone: PS all phosphorothioate, else s phosphorothioate and o phosphodiester by linkage. Methylation of C is not given here. e = 2'-O-(2-methoxyethyl) (MOE); k = constrained ethyl (cEt); d = 2'-deoxy (DNA)

Molecular target: IRF4
Conditions: ASO

Sequence	target mRNA inhibition (SK-MEL-28, 4 µM)	target mRNA inhibition (MM.1R, 1 µM)	also measured
GAGCCTGGGACTCAGG (sugars k4 d8 k4, PS)	19%	–	–
CACTTGTCTTGGGTGG (sugars k3 d10 k3, PS)	45%	–	–
CTCTATAGTGTTCCAG (sugars k3 d10 k3, PS)	66%	–	–
GCTGAAACGGTCAGCA (sugars k3 d10 k3, PS)	–	8%	–
GTGATGTCAGGTTTTC (sugars kkkddddddddkekek, PS)	–	57%	target mRNA inhibition (MM.1R, 0.074 µM): 14%; target mRNA inhibition (MM.1R, 0.222 µM): 35%; target mRNA inhibition (MM.1R, 0.666 µM): 54%; target mRNA inhibition (MM.1R, 2 µM): 77%
TTATGTTAGCCAATTC (sugars kkdddddddddkdkdk, PS)	–	17% and 26%	–
AGCAAACCCTGCACTC (sugars k3 d10 k3, PS)	8%	–	–
CAAAGAGGGTCACAGG (sugars k3 d10 k3, PS)	63%	–	–
AGGCGCGGACGCACGG (sugars k3 d10 k3, PS)	31%	–	–
AAGCTTGATAAAGGCT (sugars kkdddddddddekeke, PS)	–	38%	–
CCGCAGCCCAAAGGCT (sugars k3 d10 k3, PS)	–	4%	–
CAATATGCTTCCAACC (sugars k3 d10 k3, PS)	-15%	–	–
GAGCAAATTGAGACCA (sugars k3 d10 k3, PS)	55%	–	–
TGATGTGATAGCTGAG (sugars kkdddddddddekeke, PS)	–	60%	–
GCTGTGTGTCAAAGAG (sugars k3 d10 k3, PS)	6%	–	–
ACGGAAGTTTACACTG (sugars k3 d10 k3, PS)	77%	–	–
CGCCACCTGATGCCTC (sugars k3 d10 k3, PS)	30%	–	–
ACACACCAGGTTAAAC (sugars k3 d10 k3, PS)	12%	–	–
CCCTCATCACCGAACA (sugars k3 d10 k3, PS)	–	-25%	–
TCCTGAATTTACAGCA (sugars k3 d10 k3, PS)	48%	–	–
CACGAAGATTCAAAAG (sugars k3 d10 k3, PS)	10%	–	–
CACTATGGTAGGAGTG (sugars k3 d10 k3, PS)	-12%	–	–
CAAGTGTCTAAAGTCC (sugars kddddddddddkekek, PS)	–	7% and 12%	–
TCCGAAAAGACTGGAG (sugars k3 d10 k3, PS)	–	-7%	–
TATCCATTAGAAAAGC (sugars k3 d10 k3, PS)	63%	–	–
CAGTTGTAAATGAGTC (sugars k3 d10 k3, PS)	89% and 86%	–	–

Sequence	target mRNA inhibition (SK-MEL-28, 4 µM)	target mRNA inhibition (MM.1R, 1 µM)	also measured
ATGTTAGCCAATTCCT (sugars kdddddddddkekeke, PS)	–	0% and 5%	–
ATAAGAAGCACTGGCA (sugars k3 d10 k3, PS)	51%	–	–
GCACATCAATGTTTTA (sugars kddddddddddkekek, PS)	–	13% and 0%	–
TGTGTATTACTCTTAG (sugars kkdddddddddekeke, PS)	–	54% and 66%	–
TGGTTGGCTGGTCTTT (sugars kkdddddddddkekek, PS)	–	44%	–
TCTGGATTGCTGATGT (sugars k3 d10 k3, PS)	–	36%	–
CCTGATGCCTCCGCCG (sugars k3 d10 k3, PS)	–	6%	–
GCACAGCCGTCCGCCT (sugars k3 d10 k3, PS)	16%	–	–
GATTGATGTGATAGCT (sugars k3 d10 k3, PS)	56%	–	–
GGCGAGTTGGCACAAT (sugars k3 d10 k3, PS)	–	49% and 30%	target mRNA inhibition (MM.1R, 0.0625 µM): -13%; target mRNA inhibition (MM.1R, 0.25 µM): 3%; target mRNA inhibition (MM.1R, 4 µM): 60%
GAGAGCTACGCAATCT (sugars k3 d10 k3, PS)	57%	–	–
ATGTGTATTACTCTTA (sugars kkdddddddddkekek, PS)	–	54% and 49%	–
CTTGTCTCCCCCAGAG (sugars k3 d10 k3, PS)	3%	–	–
CTGCTGCCCAATACAT (sugars k3 d10 k3, PS)	47%	–	–
CCCCAGGGCCCTCGGT (sugars k3 d10 k3, PS)	18%	–	–
ACCCACCCAGTGTCTG (sugars k3 d10 k3, PS)	18%	–	–
CATCATGTAGTTGTGA (sugars k3 d10 k3, PS)	41%	–	–
AGTGTAACTGAGGACT (sugars k3 d10 k3, PS)	-7%	–	–
TAGAGAACATTACGAG (sugars k3 d10 k3, PS)	60%	–	–
GAGATACTTGTACTGT (sugars k3 d10 k3, PS)	–	49% and 57%	target mRNA inhibition (MM.1R, 0.0625 µM): -2%; target mRNA inhibition (MM.1R, 0.25 µM): 18%; target mRNA inhibition (MM.1R, 4 µM): 84%
TAGTATGAGAAACGGC (sugars kkkdddddddddkeke, PS)	–	62%	target mRNA inhibition (MM.1R, 0.074 µM): 8%; target mRNA inhibition (MM.1R, 0.222 µM): 29%; target mRNA inhibition (MM.1R, 0.666 µM): 50%; target mRNA inhibition (MM.1R, 2 µM): 71%
AACAAACAGAGGAGCG (sugars k3 d10 k3, PS)	16%	–	–
GCGCCCAATCACCTTC (sugars k3 d10 k3, PS)	3%	–	–
GAAACGAGTTGACACA (sugars k3 d10 k3, PS)	–	0%	–
GGAATTTCCATTGGAG (sugars k3 d10 k3, PS)	44%	–	–
ACTGCTTGAGGTTTTC (sugars k3 d9 k3 e1, PS)	–	52%	–

Sequence	target mRNA inhibition (SK-MEL-28, 4 µM)	target mRNA inhibition (MM.1R, 1 µM)	also measured
TGATGTGATAGCTGAG (sugars k2 d9 e3 k2, PS)	–	47%	–
CTAATCTACAACAAAT (sugars k3 d10 k3, PS)	23%	–	–
TGCTTGAGGTTTTCCT (sugars kkddddddddddkeke, PS)	–	33%	–
CCCTAGGTCATACCCT (sugars k3 d10 k3, PS)	57%	–	–
ATTTACTGTTACCGAT (sugars k3 d10 k3, PS)	29%	–	–
GAAATGGAGCATCCGC (sugars k3 d10 k3, PS)	32%	–	–
ACTCATAGGTGTACAC (sugars k3 d10 k3, PS)	45%	–	–
GTTCTAGTCGCGCAAG (sugars k3 d10 k3, PS)	27%	–	–
TGGTAATCTTCTGGAT (sugars k3 d10 k3, PS)	24%	–	–
TCAATGGGAATCACAG (sugars k3 d10 k3, PS)	40%	–	–
CTGTATAGTTCTCAAC (sugars k3 d10 k3, PS)	52%	–	–
GACATTACTAGATTGT (sugars k3 d10 k3, PS)	70%	–	–
TAACAGGCTATCAGGA (sugars k3 d10 k3, PS)	26%	–	–
CCCTAAGTTTAATTTA (sugars k3 d10 k3, PS)	-3%	–	–
TACTGCTGTACTTTCT (sugars k3 d10 k3, PS)	43%	–	–
GCAATGAACGGAAGTT (sugars k3 d10 k3, PS)	45%	–	–
CTTTCCCATGGTTACT (sugars k3 d10 k3, PS)	–	8%	–
GTCTGGCTAGCAGAGG (sugars k3 d10 k3, PS)	66%	–	target mRNA inhibition (SK-MEL-28, 0.185 µM): 10%; target mRNA inhibition (SK-MEL-28, 5 µM): 68%; target mRNA inhibition (SK-MEL-28, 15 µM): 89%
CTACATCTACTCCAGA (sugars k3 d10 k3, PS)	22%	–	–
GTCTTTGGGATTCTAT (sugars k3 d10 k3, PS)	65%	–	–
CATATTCCAACAGGCG (sugars k3 d10 k3, PS)	–	-1%	–
ACCTCAGTTTGTGAAG (sugars kkdddddddddekeke, PS)	–	13%	–
GCCAAACAAACAGAGG (sugars k3 d10 k3, PS)	22%	–	–
CAGCATGAGCTCGGTC (sugars k3 d10 k3, PS)	–	22%	–
GGTTGGCTGGTCTTTG (sugars kkdddddddddekeke, PS)	–	73% and 66%	target mRNA inhibition (MM.1R, 0.0625 µM): 34%; target mRNA inhibition (MM.1R, 0.25 µM): 47%; target mRNA inhibition (MM.1R, 4 µM): 84%
TGCTACTGCGGACATC (sugars k3 d10 k3, PS)	43%	–	–

Sequence	target mRNA inhibition (SK-MEL-28, 4 µM)	target mRNA inhibition (MM.1R, 1 µM)	also measured
TGTTAAGTCCCATCTG (sugars k3 d10 k3, PS)	25%	–	–
ATGTGATAGCTGAGCT (sugars kkdddddddddkekek, PS)	–	24%	–
GGGTCCTCCGCCCGCT (sugars k3 d10 k3, PS)	28%	–	–
CCAACGACAGCATAGC (sugars k3 d10 k3, PS)	76%	–	–
CCTCAGTTTGTGAAGC (sugars k3 d10 k3, PS)	69%	–	–
AATTGGCACGAGGAAG (sugars k3 d10 k3, PS)	28%	–	–
ACTTTTAGAGAGGAGA (sugars kkdddddddddekeke, PS)	–	52%	–
GCAGTGATGTCAGGTT (sugars kkkddddddddkekek, PS)	–	36%	–
TGATGTGATAGCTGAG (sugars kkdddddddddkdkdk, PS)	–	14%	–
ACTTGCATCCATGTCA (sugars k3 d10 k3, PS)	–	35%	–
TTGCAAGAGAACAGCC (sugars k3 d10 k3, PS)	39%	–	–
TAGTAGACCACAGTGA (sugars k3 d10 k3, PS)	9%	–	–
TGCTAGGACACAGCTG (sugars k3 d10 k3, PS)	43%	–	–
GTAAGAGGGCAGTCAA (sugars k3 d10 k3, PS)	44%	–	–
GTTCGCTGAATTGTCA (sugars k3 d10 k3, PS)	37%	–	–
CAAAAACTTGGGTCAC (sugars k3 d10 k3, PS)	20%	–	–
GTATTAATATTCTGAC (sugars k3 d10 k3, PS)	63%	–	–
GAAGTTTACACTGGAT (sugars kkkddddddddkekek, PS)	–	52%	–
TAACGGTGTTTCAGAA (sugars k3 d10 k3, PS)	26%	–	–
ACCTGCATCGAGATCA (sugars k3 d10 k3, PS)	53%	–	–
TCCCAGAGTTGTTCCA (sugars k3 d10 k3, PS)	26%	–	–
AGGAACAATCCTGTAC (sugars k3 d10 k3, PS)	16%	–	–
GCCAAGGAGGCGGGCC (sugars k3 d10 k3, PS)	–	-2%	–
